Structures are written as SMILES.

One series concerns replicon cells (1b-Con1). The series can be described thus: Replicon activity assay (replicon RNA level by real-time RT-PCR, Taqman). The class given is cell-based. The note with it: Hepatitis C virus, HCV replicon genotype 1b; read-out: EC50 (1b) Range. The method, then: (§1) To measure cell-based anti-HCV activity of the compounds of the present invention, replicon cells (1b-Con1) are seeded at 5000 cells/well in 96-well plates one day prior to treatment with a compound of the invention. Various concentrations of a test compound of the invention in DMSO are then added to the replicon cells, with the final concentration of DMSO at 0.5% and fetal bovine serum at 10% in the assay media. Cells are harvested three days post-dosing, and the replicon RNA level is determined using real-time RT-PCR (Taqman assay) with GAPDH RNA as endogenous control. EC50 values are calculated from experiments with 10 serial twofold dilutions of the inhibitor in triplicate. To measure cytotoxicity in replicon cells of an inhibitor, an MTS assay is performed according to the manufacturer's protocol for CellTiter 96 Aqueous One Solution Cell Proliferation Assay (Promega, Cat # G3580) three days post dosing on cells treated identically as in replicon activity assays. […] Cytotoxicity in other types of cells may be measured using the same MTS protocol.
For orientation: Replicon systems follow genome replication, usually without infectious particles.

Series [1] is described as follows: Cytotoxicity MTS assay (CellTiter 96 Aqueous One Solution) in replicon cells. The class given is cell-based. The following applies: HCV replicon cells (1b-Con1); EDU; read-out: CC50 (EDU) Range. On the procedure:
as §1
In general terms: Tetrazolium assays rely on reduction of a dye to a coloured formazan, in cell work by metabolically active cells.

Usually EC50 stands for the concentration giving half of the maximal effect. Usually CC50 stands for the concentration that lowers cell viability or growth by half. Take `C#C[C@]1(C)[C@@H]2O[P@@](=O)(OCC(C)(C)CC(=O)OC(C)C)OC[C@H]2O[C@H]1n1ccc(=O)[nH]c1=O` [Compound 18A]: in the series on replicon cells (1b-Con1), the EC50 is more than 10 µM. In addition, in series [1], the half-maximal cytotoxic concentration (CC50) at 3 days was more than 50 µM.

Regarding `C#C[C@]1(C)[C@@H]2O[P@](=O)(OCC(C)(C)CC(=O)OC(C)C)OC[C@H]2O[C@H]1n1ccc(=O)[nH]c1=O` [Compound 18B], in the series on replicon cells (1b-Con1), the EC50 was more than 10 µM. In addition, the CC50 at 3 days in series [1] is more than 50 µM.

As for `CC(C)OC(=O)C(C)(C)CCO[P@@]1(=O)OC[C@H]2O[C@@H](n3ccc(=O)[nH]c3=O)[C@](C)(N)[C@@H]2O1` [Compound 19A], in the series on replicon cells (1b-Con1), the EC50 is more than 10 µM. Further, in series [1], the CC50 at 3 days is more than 50 µM.

Consider `CC(C)OC(=O)C(C)(C)CCO[P@]1(=O)OC[C@H]2O[C@@H](n3ccc(=O)[nH]c3=O)[C@](C)(N)[C@@H]2O1` [Compound 19B], for which the EC50 in the series on replicon cells (1b-Con1) is more than 10 µM. The CC50 at 3 days in series [1] was more than 50 µM.

With `C#C[C@]1(C)[C@@H]2O[P@@](=O)(OCCC(C)(C)C(=O)OC(C)C)OC[C@H]2O[C@H]1n1ccc(=O)[nH]c1=O` [Compound 20A], the EC50 in the series with replicon cells (1b-Con1) was more than 10 µM. In addition, in series [1], the CC50 at 3 days was more than 50 µM.

On to `C#C[C@]1(C)[C@@H]2O[P@](=O)(OCCC(C)(C)C(=O)OC(C)C)OC[C@H]2O[C@H]1n1ccc(=O)[nH]c1=O` [Compound 20B], for which the EC50 with replicon cells (1b-Con1) was more than 10 µM. Moreover, the cytotoxic concentration (CC50) at 3 days in series [1] is more than 50 µM.

Consider `CC(CCO[P@@]1(=O)OC[C@H]2O[C@@H](n3ccc(=O)[nH]c3=O)[C@](C)(N)[C@@H]2O1)CC(=O)OC(C)C` (stereo partly shown) [Compound 21A], for which, in the series with replicon cells (1b-Con1), the 50% effective concentration (EC50) was more than 10 µM. For the same compound, the CC50 at 3 days in series [1] is more than 50 µM.

`CC(CCO[P@]1(=O)OC[C@H]2O[C@@H](n3ccc(=O)[nH]c3=O)[C@](C)(N)[C@@H]2O1)CC(=O)OC(C)C` (stereo partly shown) [Compound 21B]: the EC50 in the series with replicon cells (1b-Con1) is more than 10 µM. Also, the half-maximal cytotoxic concentration (CC50) at 3 days in series [1] is more than 50 µM.

For the compound `C#C[C@]1(C)[C@@H]2O[P@@](=O)(OCC(C)CCC(=O)OC(C)C)OC[C@H]2O[C@H]1n1ccc(=O)[nH]c1=O` (stereo partly shown) [Compound 22A], in the series with replicon cells (1b-Con1), the EC50 is more than 10 µM. Further, the cytotoxic concentration (CC50) at 3 days in series [1] is more than 50 µM.

Regarding `C#C[C@]1(C)[C@@H]2O[P@](=O)(OCC(C)CCC(=O)OC(C)C)OC[C@H]2O[C@H]1n1ccc(=O)[nH]c1=O` (stereo partly shown) [Compound 22B], in the series on replicon cells (1b-Con1), the concentration for a half-maximal effect (EC50) is more than 10 µM. In series [1], the cytotoxic concentration (CC50) at 3 days is more than 50 µM.

`CCC(CCO[P@@]1(=O)OC[C@H]2O[C@@H](n3ccc(=O)[nH]c3=O)[C@](C)(N)[C@@H]2O1)C(=O)OC(C)C` (stereo partly shown) [Compound 23A]: the EC50 in the series with replicon cells (1b-Con1) is more than 10 µM. For the same compound, the CC50 at 3 days in series [1] is more than 50 µM.

With `CCC(CCO[P@]1(=O)OC[C@H]2O[C@@H](n3ccc(=O)[nH]c3=O)[C@](C)(N)[C@@H]2O1)C(=O)OC(C)C` (stereo partly shown) [Compound 23B], the concentration for a half-maximal effect (EC50) in the series on replicon cells (1b-Con1) is more than 10 µM. The CC50 at 3 days in series [1] is more than 50 µM.

Regarding `CC(C)OC(=O)C(CCO[P@@]1(=O)OC[C@H]2O[C@@H](n3ccc(=O)[nH]c3=O)[C@](C)(N)[C@@H]2O1)C(C)C` (stereo partly shown) [Compound 24A], in the series on replicon cells (1b-Con1), the EC50 was more than 10 µM. The CC50 at 3 days in series [1] is more than 50 µM.

`CC(C)OC(=O)C(CCO[P@]1(=O)OC[C@H]2O[C@@H](n3ccc(=O)[nH]c3=O)[C@](C)(N)[C@@H]2O1)C(C)C` (stereo partly shown) [Compound 24B]: the concentration giving a half-maximal response (EC50) in the series on replicon cells (1b-Con1) is more than 10 µM. Further, in series [1], the CC50 at 3 days was more than 50 µM.

For the compound `C[C@@]1(N)[C@@H]2O[P@@](=O)(OCCC3(C(=O)OC4CCCC4)CC3)OC[C@H]2O[C@H]1n1ccc(=O)[nH]c1=O` [Compound 26A], the concentration for a half-maximal effect (EC50) in the series on replicon cells (1b-Con1) is more than 10 µM. The CC50 at 3 days in series [1] was more than 50 µM.

Regarding `C[C@@]1(N)[C@@H]2O[P@](=O)(OCCC3(C(=O)OC4CCCC4)CC3)OC[C@H]2O[C@H]1n1ccc(=O)[nH]c1=O` [Compound 26B], the EC50 with replicon cells (1b-Con1) was more than 10 µM. Also, the 50% cytotoxic concentration (CC50) at 3 days in series [1] is more than 50 µM.

Regarding `CC(C)OC(=O)C1(CCO[P@@]2(=O)OC[C@H]3O[C@@H](n4ccc(=O)[nH]c4=O)[C@](C)(N)[C@@H]3O2)CC1` [Compound 27A], the 50% effective concentration (EC50) in the series on replicon cells (1b-Con1) is more than 10 µM. In addition, the CC50 at 3 days in series [1] was more than 50 µM.

Consider `CC(C)OC(=O)C1(CCO[P@]2(=O)OC[C@H]3O[C@@H](n4ccc(=O)[nH]c4=O)[C@](C)(N)[C@@H]3O2)CC1` [Compound 27B], for which, in the series on replicon cells (1b-Con1), the EC50 is more than 10 µM. Also, the CC50 at 3 days in series [1] is more than 50 µM.

As for `CCOC(=O)C1(CCO[P@@]2(=O)OC[C@H]3O[C@@H](n4ccc(=O)[nH]c4=O)[C@](C)(N)[C@@H]3O2)CC1` [Compound 28A], the EC50 with replicon cells (1b-Con1) is more than 10 µM. Also, the 50% cytotoxic concentration (CC50) at 3 days in series [1] was more than 50 µM.

As for `CCOC(=O)C1(CCO[P@]2(=O)OC[C@H]3O[C@@H](n4ccc(=O)[nH]c4=O)[C@](C)(N)[C@@H]3O2)CC1` [Compound 28B], the EC50 with replicon cells (1b-Con1) is more than 10 µM. Moreover, the cytotoxic concentration (CC50) at 3 days in series [1] was more than 50 µM.

With `C[C@@]1(N)[C@@H]2OP(=O)(OCCC3(C(=O)OC4CCCC4)CCC3)OC[C@H]2O[C@H]1n1ccc(=O)[nH]c1=O` (stereo partly shown) [Compound 29A], in the series on replicon cells (1b-Con1), the EC50 is more than 10 µM. For the same compound, the CC50 at 3 days in series [1] was more than 50 µM.

`C#C[C@]1(C)[C@@H]2O[P@@](=O)(OCCC(CC)C(=O)OC3CCCC3)OC[C@H]2O[C@H]1n1ccc(=O)[nH]c1=O` (stereo partly shown) [Compound 30A]: in the series on replicon cells (1b-Con1), the concentration for a half-maximal effect (EC50) is more than 10 µM. The CC50 at 3 days in series [1] is more than 50 µM.

With `C#C[C@]1(C)[C@@H]2O[P@](=O)(OCCC(CC)C(=O)OC3CCCC3)OC[C@H]2O[C@H]1n1ccc(=O)[nH]c1=O` (stereo partly shown) [Compound 30B], the concentration for a half-maximal effect (EC50) in the series on replicon cells (1b-Con1) was more than 10 µM. Also, the cytotoxic concentration (CC50) at 3 days in series [1] is more than 50 µM.

For the compound `C#C[C@]1(C)[C@@H]2O[P@@](=O)(OCCC(CC)C(=O)OC(C)C)OC[C@H]2O[C@H]1n1ccc(=O)[nH]c1=O` (stereo partly shown) [Compound 31A], the EC50 in the series on replicon cells (1b-Con1) is 0.25 to 1 µM. Moreover, the CC50 at 3 days in series [1] was more than 50 µM.

As for `C#C[C@]1(C)[C@@H]2O[P@](=O)(OCCC(CC)C(=O)OC(C)C)OC[C@H]2O[C@H]1n1ccc(=O)[nH]c1=O` (stereo partly shown) [Compound 31B], the 50% effective concentration (EC50) in the series with replicon cells (1b-Con1) was more than 10 µM. In addition, the CC50 at 3 days in series [1] was more than 50 µM.

As for `C#C[C@]1(C)[C@@H]2O[P@@](=O)(OCCC(C(=O)OC(C)C)C(C)C)OC[C@H]2O[C@H]1n1ccc(=O)[nH]c1=O` (stereo partly shown) [Compound 32A], the EC50 in the series on replicon cells (1b-Con1) was more than 10 µM. In series [1], the CC50 at 3 days is more than 50 µM.

`C#C[C@]1(C)[C@@H]2O[P@](=O)(OCCC(C(=O)OC(C)C)C(C)C)OC[C@H]2O[C@H]1n1ccc(=O)[nH]c1=O` (stereo partly shown) [Compound 32B]: the concentration giving a half-maximal response (EC50) with replicon cells (1b-Con1) is more than 10 µM. For the same compound, the CC50 at 3 days in series [1] is more than 50 µM.

Turning to `CC(C)OC(=O)C(CCO[P@@]1(=O)OC[C@H]2O[C@@H](n3ccc(=O)[nH]c3=O)[C@](C)(N)[C@@H]2O1)c1ccccc1` (stereo partly shown) [Compound 33A], the concentration for a half-maximal effect (EC50) with replicon cells (1b-Con1) is more than 10 µM. The CC50 at 3 days in series [1] was more than 50 µM.

With `CC(C)OC(=O)C(CCO[P@]1(=O)OC[C@H]2O[C@@H](n3ccc(=O)[nH]c3=O)[C@](C)(N)[C@@H]2O1)c1ccccc1` (stereo partly shown) [Compound 33B], in the series with replicon cells (1b-Con1), the EC50 was more than 10 µM. In addition, the CC50 at 3 days in series [1] was more than 50 µM.

Take `CC(C)OC(=O)C(C)CCCO[P@@]1(=O)OC[C@H]2O[C@@H](n3ccc(=O)[nH]c3=O)[C@](C)(N)[C@@H]2O1` (stereo partly shown) [Compound 34A]: the EC50 in the series with replicon cells (1b-Con1) is more than 10 µM. Moreover, the 50% cytotoxic concentration (CC50) at 3 days in series [1] was more than 50 µM.

Regarding `CC(C)OC(=O)C(C)CCCO[P@]1(=O)OC[C@H]2O[C@@H](n3ccc(=O)[nH]c3=O)[C@](C)(N)[C@@H]2O1` (stereo partly shown) [Compound 34B], the concentration for a half-maximal effect (EC50) with replicon cells (1b-Con1) was more than 10 µM. The CC50 at 3 days in series [1] was more than 50 µM.

Regarding `CC(C)OC(=O)C(C)CCOP1(=O)OC[C@H]2O[C@@H](n3cnc4c(N)ncnc43)[C@](C)(Cl)[C@@H]2O1` (stereo partly shown) [Compound 35A], the concentration for a half-maximal effect (EC50) in the series on replicon cells (1b-Con1) was not above 0.25 µM. Besides, the cytotoxic concentration (CC50) at 3 days in series [1] was more than 50 µM.

The values are drawn from patent US20200179428A1, “CYCLIC PHOSPHATE SUBSTITUTED NUCLEOSIDE DERIVATIVES AND METHODS OF USE THEREOF FOR THE TREATMENT OF VIRAL DISEASES” (priority 2016, published 2020).
